Data reported in patent US7276523B2, “Aminopyridine derivatives as estrogen receptor modulators” (SmithKline Beecham Corporation, priority 2001, dated 2007).
pKi: −log10 of the molar value.

Legend:
[1] = biological target: T1, GST-hERα (ligand binding domain) (Homo sapiens, UniProt P03372); assay: Competition binding assay (SPA, [3H]estradiol), ER alpha; details: read-out: Avg. ER alpha Ki (n)
T1 construct: made in house; host or cells: E. coli BL21(DE3)pLysS
T1 sequence (P03372 311-547 limits assumed): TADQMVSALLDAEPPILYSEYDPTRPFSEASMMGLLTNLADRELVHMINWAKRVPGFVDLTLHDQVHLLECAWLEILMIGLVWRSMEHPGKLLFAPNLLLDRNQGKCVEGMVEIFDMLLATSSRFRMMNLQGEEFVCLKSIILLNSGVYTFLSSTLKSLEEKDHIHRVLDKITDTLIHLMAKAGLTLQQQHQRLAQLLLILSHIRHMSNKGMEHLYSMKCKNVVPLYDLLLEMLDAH
Protocol: The ligand binding domain of both ERα and ERβ were subcloned into pGEX-2T vector, which had been modified to contain KpnI and BamHI restriction, sites in the multiple cloning region. GST-hERα and GST-hERβ proteins were made by transforming BL21(DE3)pLYS S competent cells with the appropriate expression plasmid. […] The cells were collected by centrifugation and resuspended in lysis buffer (50 mM Tris pH 7.9; 250 mM KCl; 1% Triton X-100; 10 mM DTT; 1 mM PMSF). The lysate was then placed on dry ice until completely frozen. The frozen lysate was thawed and centrifuged 20 min at 4° C. at 80 K rpm in a TLA 100.2 rotor in a Beckman TL-100 ultracentrifuge. The supernatant was retained and glycerol was added to a final concentration of 10%. The protein content of the supernatant was quantitated using the BioRad Protein Assay Reagent. The protein was then stored at −80° C. until used in the binding assay.
Polylysine coated Yttrium Silicate SPA beads (Amersham #RPNQ 0010) was resuspended in assay buffer [10 mM potassium phosphate buffer pH 7.0 containing 2 mM EDTA, 50 mM NaCl, 1 mM DTT, 2 mM CHAPS, 10% glycerol] to a concentration of 1 g/60 ml. 30 ul (0.5 mg) of the SPA beads was then added to each well of a Packard OptiPlate (Packard 6005190, Packard Instruments, Meriden, Conn.). […] The plates were shaken vigorously for two hours then counted on a Packard TopCount using the protocol for counting tritium yttrium silicate SPA beads. Data analysis was done by standard methods. % Bound was calculated for each concentration of each test compound using the equation % Bound=100*((Test−NS)/(T−NS)). % Bound was plotted vs concentration and curve fitting was accomplished using non-linear regression.
Saturation binding assays were run similarly to competition assays.

[2] = biological target: T2, GST-hERβ (ligand binding domain) (Homo sapiens, UniProt Q92731); assay: Competition binding assay (SPA, [3H]estradiol), ER beta
T2 construct: made in house; host or cells: E. coli BL21(DE3)pLysS
Protocol: The ligand binding domain of both ERα and ERβ were subcloned into pGEX-2T vector, which had been modified to contain KpnI and BamHI restriction, sites in the multiple cloning region. GST-hERα and GST-hERβ proteins were made by transforming BL21(DE3)pLYS S competent cells with the appropriate expression plasmid. Liquid cultures containing standard Luria-Bertani (LB) broth with 0.1 mg/ml ampicillin and 0.033 mg/ml chloramphenicol were grown at 37° C. to an OD600 of 0.5-1.0 then induced with IPTG for 2-3 hours. The cells were collected by centrifugation and resuspended in lysis buffer (50 mM Tris pH 7.9; 250 mM KCl; 1% Triton X-100; 10 mM DTT; 1 mM PMSF). The lysate was then placed on dry ice until completely frozen. The frozen lysate was thawed and centrifuged 20 min at 4° C. at 80 K rpm in a TLA 100.2 rotor in a Beckman TL-100 ultracentrifuge. The supernatant was retained and glycerol was added to a final concentration of 10%. The protein content of the supernatant was quantitated using the BioRad Protein Assay Reagent. The protein was then stored at −80° C. until used in the binding assay.
Polylysine coated Yttrium Silicate SPA beads (Amersham #RPNQ 0010) was resuspended in assay buffer [10 mM potassium phosphate buffer pH 7.0 containing 2 mM EDTA, 50 mM NaCl, 1 mM DTT, 2 mM CHAPS, 10% glycerol] to a concentration of 1 g/60 ml. 30 ul (0.5 mg) of the SPA beads was then added to each well of a Packard OptiPlate (Packard 6005190, Packard Instruments, Meriden, Conn.). […] [2, 4, 6, 7, 16, 17-3H(N)]-Estradiol was added as a 30 ul aliquot to give a final assay concentration of 1 nM. To give a final volume of 100 ul, either 10 ul of a test compound solution (typically in 10% DMSO as solvent), solvent containing no test compound (to determine total binding, T), or solvent containing 17-b-estradiol at 100 uM (to determine non-specific binding, NS) were finally added to the plate. The plates were shaken vigorously for two hours then counted on a Packard TopCount using the protocol for counting tritium yttrium silicate SPA beads. Data analysis was done by standard methods. % Bound was calculated for each concentration of each test compound using the equation % Bound=100*((Test−NS)/(T−NS)). % Bound was plotted vs concentration and curve fitting was accomplished using non-linear regression.
Saturation binding assays were run similarly to competition assays. […] [2, 4, 6, 7, 16, 17-3H(N)]-Estradiol was added such that the final concentration ranged from 0.1 to 100 nM.

T2 sequence (Q92731 264-498 limits assumed): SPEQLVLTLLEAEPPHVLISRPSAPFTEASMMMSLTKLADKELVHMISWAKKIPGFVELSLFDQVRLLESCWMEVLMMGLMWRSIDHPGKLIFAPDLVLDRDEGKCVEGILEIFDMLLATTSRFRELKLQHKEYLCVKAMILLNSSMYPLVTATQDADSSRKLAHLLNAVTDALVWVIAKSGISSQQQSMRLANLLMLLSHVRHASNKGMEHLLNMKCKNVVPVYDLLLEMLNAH

pKi [1] | pKi [2] | Compound
6.08 | 6.00 | CCN(Cc1ccncc1)c1cc(-c2ccccc2)cc(-c2ccc(O)cc2C)n1 [Example 28, 4-{6-[ethyl(4-pyridinylmethyl)amino]-4-phenyl-2-pyridinyl}-3-methylphenol]
7.70 | 6.96 | Cc1cc(O)ccc1-c1cc(-c2ccccc2)cc(N2CCC(Cc3ccccc3)CC2)n1 [Example 29, 4-[6-(4-benzyl-1-piperidinyl)-4-phenyl-2-pyridinyl]-3-methylphenol]
6.89 | 6.60 | Cc1cc(O)ccc1-c1cc(-c2ccccc2)cc(N(CCc2ccccc2)Cc2ccccc2)n1 [Example 31, 4-{6-[benzyl(2-phenylethyl)amino]-4-phenyl-2-pyridinyl}-3-methylphenol]
5.70 | 5.93 | CCOCCN(CCOCC)c1cc(-c2ccccc2)cc(-c2ccc(O)cc2C)n1 [Example 32, 4-{6-[bis(2-ethoxyethyl)amino]-4-phenyl-2-pyridinyl}-3-methylphenol]

More lines, now with the values behind:

Compound | pKi [1] | pKi [2]
Cc1cc(O)ccc1-c1cc(-c2ccccc2)cc(N(C)CCc2ccccc2)n1 [Example 6, 3-methyl-4-{6-[methyl(2-phenylethyl)amino]-4-phenyl-2-pyridinyl}phenol] | 6.80 | 6.17
CCCCN(C)c1cc(-c2ccccc2)cc(-c2cccc(O)c2)n1 [Example 12, 3-{6-[butyl(methyl)amino]-4-phenyl-2-pyridinyl}phenol] | 6.18 | 6.10
Cc1cc(O)ccc1-c1cc(-c2ccccc2)cc(N(C)Cc2ccccc2)n1 [Example 15, 4-{6-[benzyl(methyl)amino]-4-phenyl-2-pyridinyl}-3-methylphenol] | 6.42 | 5.95
Cc1cc(O)ccc1-c1cc(-c2ccccc2)cc(N(C)Cc2cccc3ccccc23)n1 [Example 18, 3-methyl-4-{6-[methyl(1-naphthylmethyl)amino]-4-phenyl-2-pyridinyl}phenol] | 6.35 | 5.85
CC(C)CCN(C)c1cc(-c2ccccc2)cc(-c2ccc(O)cc2)n1 [Example 20, 4-{6-[isopentyl(methyl)amino]-4-phenyl-2-pyridinyl}phenol] | 6.21 | 5.90
Cc1cc(O)ccc1-c1cc(-c2ccccc2)cc(N(C)CCC(C)C)n1 [Example 21, 4-{6-[isopentyl(methyl)amino]-4-phenyl-2-pyridinyl}-3-methylphenol] | 6.68 | 6.18
Cc1cc(O)ccc1-c1cc(-c2ccccc2)cc(N(C)CCc2ccccn2)n1 [Example 23, 3-methyl-4-(6-{methyl[2-(2-pyridinyl)ethyl]amino}-4-phenyl-2-pyridinyl)phenol] | 5.90 | < 5.52
CCCN(Cc1ccccn1)c1cc(-c2ccccc2)cc(-c2ccc(O)cc2C)n1 [Example 26, 3-methyl-4-{4-phenyl-6-[propyl(2-pyridinylmethyl)amino]-2-pyridinyl}phenol] | 7.15 | 6.48
